The source made the active and inactive calls. No cut-off for these calls is given here.
Experiments:
[1] = molecular target: Histone deacetylase (Homo sapiens) (UniProt Q13547+O15379+Q9UBN7+Q92769+Q9UQL6+Q8WUI4+Q9BY41+Q96DB2+P56524+Q9UKV0+Q969S8); assay: Inhibition of HDAC in human SCC4 cells assessed as hyperacetylation of histone H4 at 1 uM by Western blotting; conditions: SCC-4
Tubulin (Homo sapiens) = Tubulin (Homo sapiens) (UniProt P68371+Q9H4B7+P0DPH7+P68366+Q13509+Q71U36+P04350+Q3ZCM7+P07437+P68363+Q9BQE3+Q6PEY2+Q13885+Q9BVA1+Q9BUF5); assay: Inhibition of HDAC in human SCC25 cells assessed as hyperacetylation of tubulin at 1 uM by Western blotting; assay type: cell-based; conditions: SCC-25
Vitamin D3 receptor = molecular target: T1, Vitamin D3 receptor (Homo sapiens, UniProt P11473); assay: Binding affinity to VDR-LBD by fluorescence polarization competition assay
T1 sequence (P11473 whole entry): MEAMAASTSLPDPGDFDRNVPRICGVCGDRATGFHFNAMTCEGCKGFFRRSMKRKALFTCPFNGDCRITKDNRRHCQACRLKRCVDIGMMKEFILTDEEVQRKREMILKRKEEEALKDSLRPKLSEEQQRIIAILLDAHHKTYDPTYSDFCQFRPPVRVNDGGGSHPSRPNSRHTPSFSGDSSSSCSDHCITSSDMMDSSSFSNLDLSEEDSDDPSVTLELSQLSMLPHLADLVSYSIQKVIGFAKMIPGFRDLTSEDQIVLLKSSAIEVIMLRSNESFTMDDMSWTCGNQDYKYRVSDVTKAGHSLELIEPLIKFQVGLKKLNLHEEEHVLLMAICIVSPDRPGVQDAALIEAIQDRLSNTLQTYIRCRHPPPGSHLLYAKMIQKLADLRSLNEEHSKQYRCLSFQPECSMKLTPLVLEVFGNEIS

[2] = molecular target: T2, Vitamin D3 receptor (Homo sapiens) (UniProt P11473); assay: Agonist activity at VDR in human SCC25 cells assessed as induction of CYP24 expression at 1 to 10 uM by RT-PCR analysis; assay type: functional, cell-based; conditions: SCC-25
T2 sequence (whole entry): T1 sequence (P11473 whole entry)

[3] = molecular target: T2, Vitamin D3 receptor (Homo sapiens); assay: Agonist activity at VDR in human SCC25 cells assessed as induction of CYP24 expression at 1 to 10 uM by semiquantitative analysis; assay type: functional, cell-based; conditions: SCC-25
[4] = molecular target: T2, Vitamin D3 receptor (Homo sapiens); conditions: 1uM
Description: Inhibition of VDR agonist-mediated AIB1 recruitment to CYP24 promoter in ChIP assay at 1uM

[5] = molecular target: T3, Protein deacetylase HDAC6 (Homo sapiens) (UniProt Q9UBN7); assay: Inhibition of human recombinant HDAC6 up to 1 mM by fluorescence assay
T3 sequence (whole entry): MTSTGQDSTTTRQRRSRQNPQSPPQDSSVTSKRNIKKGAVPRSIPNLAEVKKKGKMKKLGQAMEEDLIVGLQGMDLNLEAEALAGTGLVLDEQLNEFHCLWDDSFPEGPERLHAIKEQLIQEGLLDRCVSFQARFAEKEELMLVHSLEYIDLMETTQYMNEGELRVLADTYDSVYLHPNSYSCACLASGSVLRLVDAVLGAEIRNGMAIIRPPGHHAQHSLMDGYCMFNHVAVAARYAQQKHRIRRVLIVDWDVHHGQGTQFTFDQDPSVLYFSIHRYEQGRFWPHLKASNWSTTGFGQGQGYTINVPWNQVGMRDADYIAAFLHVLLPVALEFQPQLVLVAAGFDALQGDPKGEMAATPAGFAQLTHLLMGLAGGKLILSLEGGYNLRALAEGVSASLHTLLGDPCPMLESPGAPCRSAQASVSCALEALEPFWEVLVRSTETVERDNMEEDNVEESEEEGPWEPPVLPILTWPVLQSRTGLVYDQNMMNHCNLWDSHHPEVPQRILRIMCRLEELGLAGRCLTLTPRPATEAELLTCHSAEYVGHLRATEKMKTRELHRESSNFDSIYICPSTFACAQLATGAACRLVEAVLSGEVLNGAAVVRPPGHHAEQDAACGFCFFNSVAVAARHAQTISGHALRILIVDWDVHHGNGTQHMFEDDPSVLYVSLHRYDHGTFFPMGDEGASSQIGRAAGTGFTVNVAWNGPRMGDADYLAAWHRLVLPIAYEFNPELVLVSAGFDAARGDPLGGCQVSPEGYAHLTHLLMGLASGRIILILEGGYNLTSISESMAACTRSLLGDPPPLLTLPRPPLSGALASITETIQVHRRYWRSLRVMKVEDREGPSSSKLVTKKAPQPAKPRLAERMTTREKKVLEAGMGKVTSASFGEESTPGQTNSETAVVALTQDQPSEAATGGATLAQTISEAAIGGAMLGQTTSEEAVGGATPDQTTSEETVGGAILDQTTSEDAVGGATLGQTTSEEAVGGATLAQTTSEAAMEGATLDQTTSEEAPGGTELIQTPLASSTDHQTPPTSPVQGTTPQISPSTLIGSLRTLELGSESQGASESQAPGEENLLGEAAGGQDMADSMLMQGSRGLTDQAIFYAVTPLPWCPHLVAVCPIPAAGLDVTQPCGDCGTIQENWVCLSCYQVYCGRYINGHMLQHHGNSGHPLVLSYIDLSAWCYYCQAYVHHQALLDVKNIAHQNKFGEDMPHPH

inhibition [1] | inhibition (Tubulin (Homo sapiens)) | IC50 (Vitamin D3 receptor) [µM] | Activity [2] | Activity [3] | inhibition [4] | inhibition [5] | Structure (SMILES)
Active | Active | 0.248 |  |  |  |  | C[C@H](CCCCC(=O)Nc1ccccc1N)[C@H]1CC[C@H]2/C(=C/C=C3C[C@@H](O)C[C@H](O)C3)CCC[C@]12C
 |  |  | Active | Active |  |  | C=C1/C(=C\C=C2/CCC[C@]3(C)[C@@H]([C@H](C)/C=C/[C@@H](O)C4(C(=O)OCCCC)CC4)CC[C@@H]23)C[C@@H](O)C[C@@H]1O
inactive | inactive | 0.107 | inactive | inactive | Active | inactive | CC(/C=C/C(=O)Nc1ccccc1N)=C\[C@@H](C)[C@H]1CC[C@H]2/C(=C/C=C3CC(O)C[C@H](O)C3)CCC[C@]12C (single isomer, unassigned)

Source: ChEMBL document CHEMBL1268926, “An o-aminoanilide analogue of 1α,25-dihydroxyvitamin D(3) functions as a strong vitamin D receptor antagonist” (J Med Chem, 2010)
